According to patent publication US10959966B2, “Compositions and methods for modulating HEXM1 expression” (CASE WESTERN RESERVE UNIVERSITY, priority 2014, dated 2021):

How the values were obtained:
[1] = tested on: HEXIM1 expression in LNCaP prostate cancer cells; experiment: HEXIM1 expression by western blot in LNCaP cells treated with HMBA analogs; type: cell-based; conditions: LNCaP cells, 24 h, western blot normalized to β-actin; for HEXIM1 expression induction at lower concentration: analogs at 100 μM; for HEXIM1 expression compared to the vehicle treatment (cutoff 2.5 fold): analogs at 500 μM
Procedure: (§1) FIGS. 2(A-B) illustrate Western blots and a graph showing the effect of HMBA analogs on HEXIM1 expression. LNCaP cells were treated with vehicle, HMBA (5 mM) and its analogs at 500 μM for 24 h. Level of HEXIM1 (upper panel) and β-actin (lower panel) was analyzed by Western blot of cell extracts with HEXIM1 antibody and β-actin antibody respectively. The bands of HEXIM1 were quantified using ImageJ (NIH) and normalized to β-actin. The results are the representative of three independent experiments.
as §1, with “3(A-B)” for “2(A-B)”, “lower concentration” for “the effect”, “identified” for “its”, “100” for “500”
FIGS. 4(A-B) illustrate Western blots and a graph showing dose-dependent study of compound 4a1 and HMBA on HEXIM1 expression. Level of HEXIM1 (upper panel) and β-actin (lower panel) was analyzed by Western blot of cell extracts with HEXIM1 antibody and β-actin antibody respectively.
HMBA analogs described herein can be synthesized based on the HMBA scaffold and then selected for their ability to induce HEXIM1 expression in an in vitro cell assay. For example, the synthesized HMBA analogs can be administered to cells, such as LNCaP prostate cancer cells, and the level of HEXIM1 in such cells can be measured using western blot analyses. The level of HEXIM1 expression of cells that are treated with a potential HMBA analog can be compared to control cells treated without the HMBA analog or with HMBA. Control cells (untreated or treated with HMBA) can be assigned a relative HEXIM1 expression value. Induction or promotion of HEXIM1 expression is achieved when the HEXIM1 expression relative to the control is increased at least about 1%, 5%, 10%, 15%, 20%, 30%, 50%, 75%, 100%, 200%, or more.
The synthesis of the symmetrical and unsymmetrical derivatives is described in Scheme 1 and 2, respectively. For the symmetrical analogs, moieties A and C were kept identical. Besides the acetyl group of HMBA, methanesulfonyl group, propionyl group or butyryl group were introduced. In addition, a bulky benzoyl group was introduced. The active proton in the amide moiety was replaced with methyl group to generate a series of analogs with lower solubility. For the moiety B, various linkers such as 1,3-propylene, […] 1,4-cyclohexylene, 1,4-phenylene-bis(methylene), 1,4-cyclohexylene-bis(methylene) were tested for optimization. For the unsymmetrical analogs, the A and B moieties were kept the same as HMBA while the C moiety was modified with aryl or alkyl amide. A total of 32 compounds were synthesized, and these compounds were examined for their potency to induce HEXIM1 in LNCaP prostate cancer cells. HMBA (5 mM) was used as a positive control.
(§2) Therefore, these three compounds were screened at lower concentrations.

LNCaP cells = experiment: Cell morphology after treatment, to exclude compounds causing cell toxicity; conditions: 500 μM
Source text: Cell morphology was examined after the treatment to exclude compounds that caused cell toxicity.

[2] = Precipitation of compounds in cell culture; type: physicochemical; conditions: 500 μM
Procedure: as §2
Some compounds were further evaluated at a lower concentration of 100 μM (FIG. 3). […] The variation in potency could be due to the precipitation of the two compounds at 500 μM, which hampers cell penetration. […] Due to the unsymmetrical structural characteristic of 4a1, a dose-dependent study was performed and the results are presented in FIG. 4.

Row | Compound | HEXIM1 expression induction at lower concentration [1] | HEXIM1 expression compared to the vehicle treatment (cutoff 2.5 fold) [1] | Cell morphology after the treatment (LNCaP cells) | Precipitation during the treatment [2]
1 | CCC(=O)NCCCCCCNC(=O)CC [Compound 2a4] | reduced activity | – | – | –
2 | CCCC(=O)NCCCCCCNC(=O)CCC [Compound 2a5] | reduced activity | – | – | –
3 | CC(=O)NCC1CCC(CNC(C)=O)CC1 (stereo not shown) [Compound 2c1] | – | reached this cutoff | cell morphology slightly changed | –
4 | CC(=O)NC1CCC(NC(C)=O)CC1 (stereo not shown) [Compound 2d1] | not able to induce HEXIM1 expression | – | – | –
5 | CS(=O)(=O)NCCCNS(C)(=O)=O [Compound 2f2] | not able to induce HEXIM1 expression | – | – | –
6 | CN(CCCCCCN(C)S(C)(=O)=O)S(C)(=O)=O [Compound 3a2] | significant activity | did not reach the cutoff | – | precipitation
7 | CC(=O)N(C)Cc1ccc(CN(C)C(C)=O)cc1 [Compound 3b1] | 3.8 fold | – | – | –
8 | CN(Cc1ccc(CN(C)S(C)(=O)=O)cc1)S(C)(=O)=O [Compound 3b2] | 2 fold | – | – | –
9 | CN(CC1CCC(CN(C)S(C)(=O)=O)CC1)S(C)(=O)=O (stereo not shown) [Compound 3c2] | not able to induce HEXIM1 expression | – | – | –
10 | CC(=O)N(C)C1CCC(N(C)C(C)=O)CC1 (stereo not shown) [Compound 3d1] | not able to induce HEXIM1 expression | – | – | –
11 | CN(C1CCC(N(C)S(C)(=O)=O)CC1)S(C)(=O)=O (stereo not shown) [Compound 3d2] | significant activity | did not reach the cutoff | – | precipitation
12 | CN(CCCN(C)S(C)(=O)=O)S(C)(=O)=O [Compound 3f2] | not able to induce HEXIM1 expression | did not reach the cutoff | – | precipitation
13 | COc1ccc(C(=O)NCCCCCCNC(C)=O)cc1 [Compound 4a3] | – | reached this cutoff | – | –
14 | CC(=O)NCCCCCCNC(=O)c1ccc(-c2ccccc2)cc1 [Compound 4a4] | not able to induce HEXIM1 expression | did not reach the cutoff | – | –
